According to US5712274A, “Thienotriazolodiazepine compounds and their pharmaceutical use” (Yoshitomi Pharmaceutical Industries, Ltd., priority 1995, dated 1998):

Experiments:
[1] = test system: CD11b; assay: Effect on CD11b expression in human histiocytic leukemia cell line, U937 cells (PDB-induced); type: cell-based; conditions: U-937, 72 h, U937 cells, PDB 10 ng/ml, 3 days, read-out: Inhibitory effect on CD11b expression (IC50)
Protocol: Effect on CD11b expression human histiocytic leukemia cell line, U937 cells
Effect on the expression of CD11b antigen, which is the α chain of an adhesion molecule, Mac-1 expressing on the surface of leukocytgic cells, was investigated. U937 cells were suspended in RPMI1640 medium containing 20% fetal calf serum (FCS), plated with phorbol 12,13-dibutyrate (PDB, 10 ng/ml) into 96-well filtration plates, and cultured for 3 days at 37° C. in 5% CO2. After the cells were washed once with RPMI1640 medium, rat anti-human CD11b antibody (2 μg/ml) was added to each well and the plates were incubated for 1 hr on ice. After the cell were washed twice, peroxidase-conjugated anti-rat immunoglobulin antibody (1 μg/ml) was added, and the cells were incubated for 1 hr on ice. After the cells were washed 3 times, substrate for peroxidase (o-phenylenediamine) was added. After the plates were stood for 15 min at room temperature, absorbance at 490 nm was measured with a 96-well microplate reader and was regarded as a indicator of CD11b antigen expression.

[2] = test system: ELAM-1; assay: Inhibitory effect on TNF-α-induced expression of ELAM-1 in HUVECs; type: cell-based; conditions: Homo sapiens, HUVEC; HUVECs, TNF-α 100 U/ml, 5 hr; read-out: Inhibitory effect (IC50) on ELAM-1 expression
Protocol: Inhibitory effect on expression of VCAM-1 and ELAM-1 in human umbilical vein-derived endothelial cells (HUVECs)
HUVECs were suspended in 199 medium containing 20% FCS, 20 μg/ml endothelial cell growth factor derived from bovine brain, and 100 μg/ml heparin, plated into 96-well microculture plates coated with collagen, and cultured at 37° C. in 5% CO2. When cells were grown to confluence, the cells received tumour necrosis factor (TNF)-α (20 U/ml for VCAM-1 expression, 100 U/ml for ELAM-1 expression) and cultured for 5 hr. After the cells were washed once with 199 medium, mouse anti-human VCAM-1 monoclonal antibody (2 μg/ml) or rat anti-human ELAM-1 monoclonal antibody (2 μg/ml) was added, and the cells were incubated for 1 hr at room temperature. After the cells were washed twice, peroxidase-conjugated anti-mouse immunoglobulin antibody or anti-rat immunoglobulin antibody was added, and the cells were incubated for 1 hr at room temperature. After the cells were washed 3 times, 2,2'-azino-bis(3-ethylbenzothiazolone-6-sulfonic acid) was added. After the plates were stood for 15 min at room temperature, absorbance at 405 nm with a reference wave length of 490 nm was measured with a 96-well microplate reader and was regarded as a indicator of VCAM-1 or ELAM-1 expression.

[3] = test system: oxazolone-induced ear edema; assay: Effect on oxazolone-induced ear edema in mice; type: in vivo; conditions: sensitized mice, 24 hr after challenge
Protocol: Effect on oxazolone-induced ear edema in mice.
Mice were sensitized by applying 50 μl of oxazolone solution (50 mg/ml in acetone) to their shaved abdomen on day 0. On day 7, 5 μl of oxazolone solution was applied to each surface of the right ear. After 24 hr (day 8), the right and left ears were cut off with a puncher of 6 mm in diameter and weighed with an electronic reading balance. The difference in weight between the oxazolone-treated ear (right) and untreated ear (left) was taken to reflect the extent of ear edema. Test compounds were suspended in 0.5% hydroxypropylmethycellulose solution and administered p.o. (0.1 ml/10 g body weight) on days 0 to 4 (once a day) and day 7 (twice a day).

[4] = test system: thioglycollate (TG) medium-induced infiltration of leukocytes; assay: Effect on thioglycollate (TG) medium-induced infiltration of leukocytes; type: in vivo, BALB/c mice; conditions: TG medium 1 ml, day 4
Protocol: Effect on thioglycollate (TG) medium-induced infiltration of leukocytes
One ml of TG medium was injected into peritoneal cavity of BALB/c mice on day 0. On day 4, leukocytes infiltrating into the peritoneal cavity were collected with 3 ml of phosphatebuffered saline containing 0.02% EDTA and the density of leukocytes (cells/ml) was counted with an automatic blood cell counter. Total number of leukocytes (X) was calculated from the density of leukocytes (A) with the following formula.
Test compounds were suspended in 0.5% hydroxypropylmethyl-cellulose solution and administered p.o. (0.1 ml/10 g body weight) on days 0 to 3.

[5] = test system: lipopolysaccharide (LPS)-induced adhesion of leukocytes; assay: Effect on lipopolysaccharide (LPS)-induced adhesion of leukocytes; type: in vivo, BALB/c mice; conditions: 6 hr after LPS
From the text: Effect on lipopolysaccharide (LPS)-induced adhesion of leukocytes
It has been reported that, by the administration of LPS to mice, an adhesion molecule, Mac-1-dependent leukocyte adhesion is induced, the leukocytes infiltrate into lung, liver and so on, and in result the number of peripheral blood leukocytes reduces (Morisaki et al., Clin. Immunol. Immunopathol., 61, 365-375, 1991). The effect on LPS-induced leukocyte adhesion was investigated by taking the reduction of peripheral blood leukocytes as an indicator of leukocyte adhesion.
LPS solution (50 ng/ml in saline, 0,5 ml/mouse) was injected into peritoneal cavity of BALB/c mice on day 0. Six hr after the LPS injection, the number of peripheral blood leukocytes was counted with an automatic blood cell counter. Test compounds were suspended in 0.5% hydroxypropylmethylcellulose solution and administered p.o. (0.1 ml/10 g body weight) on days -4 to 0.

[6] = test system: glomerulonephritis; assay: Effect on glomerulonephritis in mice (anti-GBM antiserum); type: in vivo, female C57BL/6 mice; conditions: 12 days after anti-GBM antiserum, 0-5 points
Protocol: Effect on glomerulonephritis in mice
Rabbit immunoglobulin G solution (4 mg/ml in saline) was mixed with Freund's complete adjuvant at a ratio of 1:1 and the emulsion was prepared. The emulsion was injected into peritoneal cavity of female C57BL/6 mice (0.25 ml/mouse). After 5 days, rabbit anti-mouse glomerular basement membrane (GBM) antiserum obtained by the method of Nagai et al. (Japan. J. Pharmacol., 32, 1117, 1982) was administered i.v. (0.08 ml/mouse). […] Test compounds were suspended in 0.5% hydroxypropylmethylcellulose (HPMC) solution and administered p.o. (0.1 ml/10 g body weight) for 13 days beginning on the day of anti-GBM ant-serum injection.

CNC(=O)C[C@@H]1N=C(c2ccc(Cl)cc2)c2c(sc(C)c2C)-n2c(C)nnc21 [Example 1, (S)-N-methyl-4-(4-chloro-phenyl)-2,3,9-trimethyl-6H-thieno[3,2-f][1,2,4]triazolo[4,3-a]-[1,4]diazepine-6-acetamide 1/4 hydrate]
IC50 [1]: 260 nM | IC50 [2]: 52 nM | Increase in ear weight (mean ± S.D.) ([3]; 0.1 mg/kg p.o.): 16.3 ± 1.0 mg | Increase in ear weight (mean ± S.D.) ([3]; 0.3 mg/kg p.o.): 15.0 ± 0.6 mg | Increase in ear weight (mean ± S.D.) ([3]; 1 mg/kg p.o.): 14.2 ± 0.8 mg | Total number of leukocytes (mean ± S.D.) ([4]; 0.03 mg/kg/day p.o.): 1059 ± 285 × 10^4 | Total number of leukocytes (mean ± S.D.) ([4]; 0.1 mg/kg/day p.o.): 719 ± 308 × 10^4 | Total number of leukocytes (mean ± S.D.) ([4]; 0.3 mg/kg/day p.o.): 442 ± 117 × 10^4 | Number of peripheral blood leukocytes (mean ± S.D.) ([5]; 0.3 mg/kg/day p.o.): 32 ± 5 × 100/μl | Number of peripheral blood leukocytes (mean ± S.D.) ([5]; 1 mg/kg/day p.o.): 50 ± 15 × 100/μl | Number of peripheral blood leukocytes (mean ± S.D.) ([5]; 3 mg/kg/day p.o.): 61 ± 13 × 100/μl | Score (mean ± S.D.) of protein level in urine ([6]; 1 mg/kg/day p.o.): 2.56 ± 0.53 | Score (mean ± S.D.) of protein level in urine ([6]; 3 mg/kg/day p.o.): 2.22 ± 0.67
